The values that follow come from publication PMC5897986 (Frontiers in Endocrinology, 2018).

Assay [1] relates to metastatic, well- or moderately differentiated, non-functional enteropancreatic NET. The note with it: patients, CLARINET trial, placebo 18 months; cited from earlier work. The text has this:
Somatostatin analogs (SSAs) are well-established antisecretory drugs with a favorable safety profile that have been used as first-line treatment to control hormone hypersecretion in functionally active neuroendocrine tumors (NET) for more than 30 years ([1], [2]). […] The relevance of SSAs in antiproliferative treatment has been a matter of debate for the past two decades.

In assay [2] the test system is SSTR-binding sites at the cell surface of BON cells. The experiment in a line: competitive [125I]-Tyr11-SST14 radioligand binding assay, BON cells. The note with it: BON whole cells, 30 min at 37°C, unlabeled peptide 0.01 nM–10 µM, gamma counter; read-out: IC50, displacement of [125I]-Tyr11-SST14. On the set-up: species or system human. How it is done: (§1) Peptide iodination and radioligand-binding assays were performed as previously described ([21]). Briefly, 10 nmol Tyr^11-somatostatin-14 (Tyr^11–SST14, Bachem, Bubendorf, Switzerland) were iodinated by the chloramin T method ([22]) with 1 mCi carrier-free Na^125I (NEZ033L010MC, Perkin Elmer, Waltham, MA, USA) and purified by HPLC (Analytic HPLC 1200 Series, Agilent, Santa Clara, CA, USA) (see Figure S1 in Supplementary Material). For competitive radioligand binding assays, 40,000 cells were seeded in 96-well plates and grown overnight. The next day, cells were incubated in binding buffer (50 mM Hepes, pH 7.4, 5 mM MgCl2, 1 mM CaCl2, 0.5% w/v BSA, cOmplete protease inhibitors) containing 100,000 counts per minute (cpm) [^125I]-Tyr^11-SST14 and increasing concentrations of unlabeled peptide. After 30 min at 37°C, cells were washed with ice-cold washing buffer (50 mM Tris–HCl, pH 7.4, 125 mM NaCl, 0.05% w/v BSA), lysed with 1 N NaOH, transferred to vials, and measured in a gamma counter (Wallac 1470 Wizard, Perkin Elmer, Waltham, MA, USA). The obtained cpm values were analyzed with GraphPad Prism 5.04, and IC50 values were calculated by non-linear regression (one site—fit logIC50, least squares fit).
For orientation: Displacement assays read how much labelled ligand stays bound in the presence of the test substance.

Assay [3] relates to SSTR-binding sites at the cell surface of UMC-11 cells. The assay is described as follows: competitive [125I]-Tyr11-SST14 radioligand binding assay, UMC-11 cells. The settings on record: UMC-11 whole cells, 30 min at 37°C, unlabeled peptide 0.01 nM–10 µM, gamma counter; read-out: IC50, displacement of [125I]-Tyr11-SST14. Further details: species or system human. How it is done: as §1

The subject of assay [4] is SSTR-binding sites at the cell surface of QGP-1 cells. The experiment in a line: competitive [125I]-Tyr11-SST14 radioligand binding assay, QGP-1 cells. Further details: species or system human. The settings on record: only background binding, unlabeled peptide 0.01 nM–10 µM. As for the experimental part:
as §1

The test system of assay [5] is SSTR-binding sites at the cell surface of LCC-18 cells. The assay is described as follows: competitive [125I]-Tyr11-SST14 radioligand binding assay, LCC-18 cells. Further details: species or system human. The settings on record: only background binding, unlabeled peptide 0.01 nM–10 µM. How it is done: as §1
Assay [6] deals with SSTR-binding sites at the cell surface of H727 cells. The experiment in a line: competitive [125I]-Tyr11-SST14 radioligand binding assay, H727 cells. On the set-up: species or system human. The note with it: only background binding, unlabeled peptide 0.01 nM–10 µM. How it is done: as §1
Assay [7] has as its system human SSTR2 in BON-SSTR2 cells. The experiment in a line: microscopic SSTR2 internalization assay. Format: cell-based. The note with it: BON-SSTR2, 1 µM ligand, 30 min at 37°C, confocal microscopy. As for the experimental part: (§2) Cells were grown on coverslips for at least 24 h. […] Cells were washed with PBS, fixated in 1:1 acetone/methanol for 2 min, and incubated with anti-SSTR2 primary antibody (sc365502, Santa Cruz Biotechnology, Dallas, TX, USA) diluted 1:50 in PBS overnight at 4°C. After washing with PBS, cells were incubated with a Cy3-conjugated goat anti-mouse secondary antibody (#115-165-146, Jackson ImmunoResearch, West Grove, PA, USA) diluted 1:1,000 in PBS for 1 h at room temperature. After washing with PBS, coverslips were briefly dipped into 96% ethanol, air-dried, and mounted on glass slides with Immu-Mount (Thermo Fisher Scientific, Waltham, MA, USA). Mounted cells were imaged using a confocal laser scanning microscope (LSM510, Carl Zeiss, Jena, Germany) using a helium–neon laser at 543 nm, LP560 emission filter, and 40× or 63× NeoFluar oil immersion objectives. RIN-1038-SSTR2-GFP cells were not immunostained after fixation, but otherwise treated the same. To visualize GFP fluorescence, an argon laser at 488 nm, LP505 emission filter was utilized on the same microscope.

The subject of assay [8] is human SSTR2 in QGP-1-SSTR2 cells. The assay is described as follows: microscopic SSTR2 internalization assay. In kind it is cell-based. The note with it: QGP-1-SSTR2, 1 µM ligand, 30 min at 37°C, confocal microscopy. As for the experimental part: as §2

lanreotide: the median progression-free survival entry in assay [1] was “not reached”.

In general, IC50 refers to the point on the concentration scale where inhibition reaches its midpoint. Turning to somatostatin-14, the results for the IC50 in assay [2] and in assay [3] were 500 ± 160 pM and 700 ± 290 pM, respectively. The “displacement of [125I]-Tyr11-SST14 binding” value in assay [4], in assay [5] and in assay [6] was “no displacement” throughout. Also, the “SSTR2 internalization / redistribution” value in assay [7] is on record as “functional, ligand-dependent SSTR2 internalization”; in assay [8], “functional, ligand-dependent SSTR2 internalization”.
